# Measurements taken from patent US9346786B2, “Pyrrolidine compounds” (Hoffmann-La Roche Inc., priority 2009, dated 2016).
# Target: recombinant human NK3 receptor (Homo sapiens (Human), UniProt P29371)
# Assay: biochemical
# Type: binding
# Conditions: [3H]SR142801, membranes of HEK293 cells transiently expressing recombinant human NK3 receptor; read-out: Data Ki (hNK-3 receptor affinity)
# Method: [^3H]SR142801 Competition Binding Assay
# hNK3 receptor binding experiment were performed using [^3H]SR142801 (Catalog No. TRK1035, specific activity: 74.0 Ci/mmol, Amersham, GE Healthcare UK limited, Buckinghamshire, UK) and membrane isolated from HEK293 cells transiently expressing recombinant human NK3 receptor. After thawing, the membrane homogenates were centrifuged at 48,000×g for […] at 4° C., the pellets were resuspended in the 50 mM Tris-HCl, 4 mM MnCl2, 1 μM phosphoramidon, 0.1% BSA binding buffer at pH 7.4 to a final assay concentration of 5 μg protein/well. For inhibition experiments, membranes were incubated with [^3H]SR142801 at a concentration equal to KD value of radioligand and 10 concentrations of the inhibitory compound (0.0003-10 μM) (in a total reaction volume of 500 μl) for 75 min at room temperature (RT). At the end of the incubation, membranes were filtered onto unitfilter (96-well white microplate with bonded GF/C filter preincubated 1 h in 0.3% PEI+0.3% BSA, Packard BioScience, Meriden, Conn.) with a Filtermate 196 harvester (Packard BioScience) and washed 4 times with ice-cold 50 mM Tris-HCl, pH 7.4 buffer. Nonspecific binding was measured in the presence of 10 μM SB222200 for both radioligands. The radioactivity on the filter was counted (5 min) on a Packard Top-count microplate scintillation counter with quenching correction after addition of 45 μl of microscint 40 (Canberra Packard S.A., Zürich, Switzerland) and shaking for 1 h. Inhibition curves were fitted according to the Hill equation: y=100/(1+(x/IC50)^nH), where nH=slope factor using Excel-fit 4 software (Microsoft). IC50 values were derived from the inhibition curve and the affinity constant (Ki) values were calculated using the Cheng-Prussoff equation Ki=IC50/(1+[L]/KD) where [L] is the concentration of radioligand and KD is its dissociation constant at the receptor, derived from the saturation isotherm. All experiments were performed in duplicate and the mean±standard error (SEM) of the individual Ki values was calculated.
# Sequence of recombinant human NK3 receptor (P29371 whole entry): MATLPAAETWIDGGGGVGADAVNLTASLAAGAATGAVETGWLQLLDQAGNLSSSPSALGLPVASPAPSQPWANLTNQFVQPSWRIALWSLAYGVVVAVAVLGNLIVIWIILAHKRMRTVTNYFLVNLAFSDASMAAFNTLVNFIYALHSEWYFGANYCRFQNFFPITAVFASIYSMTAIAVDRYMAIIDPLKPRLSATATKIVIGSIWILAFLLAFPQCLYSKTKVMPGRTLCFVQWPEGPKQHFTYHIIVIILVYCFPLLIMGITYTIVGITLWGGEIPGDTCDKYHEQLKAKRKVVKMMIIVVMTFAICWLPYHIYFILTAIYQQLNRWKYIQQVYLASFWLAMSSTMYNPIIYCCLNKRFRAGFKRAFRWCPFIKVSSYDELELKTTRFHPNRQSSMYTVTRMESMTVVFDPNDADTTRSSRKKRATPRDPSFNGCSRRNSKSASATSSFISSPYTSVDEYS
row,SMILES,Ki [nM]
1,"CCN(C(=O)Oc1ccc(F)cc1)[C@@H]1CN(C(=O)C2CCN(c3ccc(C#N)nc3)CC2)C[C@H]1c1ccc(Cl)c(F)c1 [Example 43, [(3S,4R)-4-(4-Chloro-3-fluoro-phenyl)-1-(6′-cyano-3,4,5,6-tetrahydro-2H-[1,3′]bipyridinyl-4-carbonyl)-pyrrolidin-3-yl]-ethyl-carbamic acid 4-fluoro-phenyl ester]",0.3
2,"CCN(C(=O)Oc1ccc(F)cc1)[C@@H]1CN(C(=O)C2CCN(C(=O)C3(C)CC3)CC2)C[C@H]1c1ccc(Cl)c(F)c1 [Example 44, {(3S,4R)-4-(4-Chloro-3-fluoro-phenyl)-1-[1-(1-methyl-cyclopropanecarbonyl)-piperidine-4-carbonyl]-pyrrolidin-3-yl}-ethyl-carbamic acid 4-fluoro-phenyl ester]",2
3,"CCN(C(=O)Oc1ccc(F)cc1)[C@@H]1CN(C(=O)C2CCN(c3ccc(F)cn3)CC2)C[C@H]1c1ccc(Cl)c(F)c1 [Example 46, [(3S,4R)-4-(4-Chloro-3-fluoro-phenyl)-1-(5′-fluoro-3,4,5,6-tetrahydro-2H-[1,2′]bipyridinyl-4-carbonyl)-pyrrolidin-3-yl]-ethyl-carbamic acid 4-fluoro-phenyl ester]",1
4,"CCN(C(=O)Oc1ccc(F)cc1)[C@@H]1CN(C(=O)C2CCN(c3ccc(C)cn3)CC2)C[C@H]1c1ccc(Cl)c(F)c1 [Example 47, [(3S,4R)-4-(4-Chloro-3-fluoro-phenyl)-1-(5′-methyl-3,4,5,6-tetrahydro-2H-[1,2′]bipyridinyl-4-carbonyl)-pyrrolidin-3-yl]-ethyl-carbamic acid 4-fluoro-phenyl ester]",2
5,"CCN(C(=O)Oc1ccc(F)cc1)[C@@H]1CN(C(=O)C2CCN(c3ccc(C#N)cn3)CC2)C[C@H]1c1ccc(F)c(F)c1 [Example 48, [(3S,4R)-1-(5′-Cyano-3,4,5,6-tetrahydro-2H-[1,2′]bipyridinyl-4-carbonyl)-4-(3,4-difluoro-phenyl)-pyrrolidin-3-yl]-ethyl-carbamic acid 4-fluoro-phenyl ester]",2
6,"CCN(C(=O)Oc1ccc(F)cc1)[C@@H]1CN(C(=O)C2CCN(c3ccc(Cl)cn3)CC2)C[C@H]1c1ccc(F)c(F)c1 [Example 49, [(3S,4R)-1-(5′-Chloro-3,4,5,6-tetrahydro-2H-[1,2′]bipyridinyl-4-carbonyl)-4-(3,4-difluoro-phenyl)-pyrrolidin-3-yl]-ethyl-carbamic acid 4-fluoro-phenyl ester]",5
7,"CCN(C(=O)Oc1ccc(F)cc1)[C@@H]1CN(C(=O)C2CCN(c3ccc(C#N)nc3)CC2)C[C@H]1c1ccc(F)c(F)c1 [Example 51, [(3S,4R)-1-(6′-Cyano-3,4,5,6-tetrahydro-2H-[1,3′]bipyridinyl-4-carbonyl)-4-(3,4-difluoro-phenyl)-pyrrolidin-3-yl]-ethyl-carbamic acid 4-fluoro-phenyl ester]",2
8,"CCN(C(=O)Oc1ccc(F)cc1)[C@@H]1CN(C(=O)C2CCN(C(=O)C3(C)CC3)CC2)C[C@H]1c1ccc(F)c(F)c1 [Example 52, {(3S,4R)-4-(3,4-Difluoro-phenyl)-1-[1-(1-methyl-cyclopropanecarbonyl)-piperidine-4-carbonyl]-pyrrolidin-3-yl}-ethyl-carbamic acid 4-fluoro-phenyl ester]",15
9,"CCN(C(=O)Oc1ccc(F)cc1)[C@@H]1CN(C(=O)C2CCN(c3cc(C#N)ccn3)CC2)C[C@H]1c1ccc(F)c(F)c1 [Example 53, [(3S,4R)-1-(4′-Cyano-3,4,5,6-tetrahydro-2H-[1,2′]bipyridinyl-4-carbonyl)-4-(3,4-difluoro-phenyl)-pyrrolidin-3-yl]-ethyl-carbamic acid 4-fluoro-phenyl ester]",16
10,"CCN(C(=O)Oc1ccc(F)cc1)[C@@H]1CN(C(=O)C2CCN(c3ccc(F)cn3)CC2)C[C@H]1c1ccc(F)c(F)c1 [Example 54, [(3S,4R)-4-(3,4-Difluoro-phenyl)-1-(5′-fluoro-3,4,5,6-tetrahydro-2H-[1,2′]bipyridinyl-4-carbonyl)-pyrrolidin-3-yl]-ethyl-carbamic acid 4-fluoro-phenyl ester]",7
11,"CCN(C(=O)Oc1ccc(F)cc1)[C@@H]1CN(C(=O)C2CCNCC2)C[C@H]1c1ccc(Cl)c(F)c1 [Example 56, [(3S,4R)-4-(4-Chloro-3-fluoro-phenyl)-1-(piperidine-4-carbonyl)-pyrrolidin-3-yl]-ethyl-carbamic acid 4-fluoro-phenyl ester]",267
12,"CCN(C(=O)Oc1ccc(F)cc1)[C@@H]1CN(C(=O)C2CCN(c3ccc(C#N)nn3)CC2)C[C@H]1c1ccc(Cl)c(F)c1 [Example 57, {(3S,4R)-4-(4-Chloro-3-fluoro-phenyl)-1-[1-(6-cyano-pyridazin-3-yl)-piperidine-4-carbonyl]-pyrrolidin-3-yl}-ethyl-carbamic acid 4-fluoro-phenyl ester]",0.7
13,"CCN(C(=O)Oc1ccc(F)cc1)[C@@H]1CN(C(=O)C2CCN(c3ccc(C#N)nn3)CC2)C[C@H]1c1ccc(F)c(F)c1 [Example 58, [(3S,4R)-1-[1-(6-Cyano-pyridazin-3-yl)-piperidine-4-carbonyl]-4-(3,4-difluoro-phenyl)-pyrrolidin-3-yl]-ethyl-carbamic acid 4-fluoro-phenyl ester]",5
14,"CCN(C(=O)Oc1ccc(F)cc1)[C@@H]1CN(C(=O)C2CCN(c3ccc(C(C)=O)cn3)CC2)C[C@H]1c1ccc(Cl)c(F)c1 [Example 59, [(3S,4R)-1-(5′-Acetyl-3,4,5,6-tetrahydro-2H-[1,2′]bipyridinyl-4-carbonyl)-4-(4-chloro-3-fluoro-phenyl)-pyrrolidin-3-yl]-ethyl-carbamic acid 4-fluoro-phenyl ester]",0.5
15,"CCN(C(=O)Oc1ccc(F)cc1)[C@@H]1CN(C(=O)C2CCN(c3ccc(C(C)=O)cn3)CC2)C[C@H]1c1ccc(F)c(F)c1 [Example 60, [(3S,4R)-1-(5′-Acetyl-3,4,5,6-tetrahydro-2H-[1,2′]bipyridinyl-4-carbonyl)-4-(3,4-difluoro-phenyl)-pyrrolidin-3-yl]-ethyl-carbamic acid 4-fluoro-phenyl ester]",4
16,"CCN(C(=O)Oc1ccc(F)cc1)[C@@H]1CN(C(=O)C2CCN(c3cnc(C#N)cn3)CC2)C[C@H]1c1ccc(Cl)c(F)c1 [Example 61, {(3S,4R)-4-(4-Chloro-3-fluoro-phenyl)-1-[1-(5-cyano-pyrazin-2-yl)-piperidine-4-carbonyl]-pyrrolidin-3-yl}-ethyl-carbamic acid 4-fluoro-phenyl ester]",0.8
17,"CCN(C(=O)Oc1ccc(F)cc1)[C@@H]1CN(C(=O)C2CCN(c3cnc(C#N)cn3)CC2)C[C@H]1c1ccc(F)c(F)c1 [Example 62, [(3S,4R)-1-[1-(5-Cyano-pyrazin-2-yl)-piperidine-4-carbonyl]-4-(3,4-difluoro-phenyl)-pyrrolidin-3-yl]-ethyl-carbamic acid 4-fluoro-phenyl ester]",6
18,"CCN(C(=O)Oc1ccc(F)cc1)[C@@H]1CN(C(=O)C2CCN(c3ccc(S(C)(=O)=O)cn3)CC2)C[C@H]1c1ccc(Cl)c(F)c1 [Example 63, [(3S,4R)-4-(4-Chloro-3-fluoro-phenyl)-1-(5′-methanesulfonyl-3,4,5,6-tetrahydro-2H-[1,2′]bipyridinyl-4-carbonyl)-pyrrolidin-3-yl]-ethyl-carbamic acid 4-fluoro-phenyl ester]",0.7
19,"CCN(C(=O)Oc1ccc(F)cc1)[C@@H]1CN(C(=O)C2CCN(c3ccc(S(C)(=O)=O)cn3)CC2)C[C@H]1c1ccc(F)c(F)c1 [Example 64, [(3S,4R)-4-(3,4-Difluoro-phenyl)-1-(5′-methanesulfonyl-3,4,5,6-tetrahydro-2H-[1,2′]bipyridinyl-4-carbonyl)-pyrrolidin-3-yl]-ethyl-carbamic acid 4-fluoro-phenyl ester]",5

# Same assay, conditions: read-out: Data Ki (hNK-3 receptor affinity)
row,SMILES,Ki [nM]
1,"CCN(C(=O)Oc1ccc(F)cc1)[C@@H]1CN(C(=O)C2CCN(c3cc(C#N)ccn3)CC2)C[C@H]1c1ccc(Cl)c(F)c1 [Example 45, [(3S,4R)-4-(4-Chloro-3-fluoro-phenyl)-1-(4′-cyano-3,4,5,6-tetrahydro-2H-[1,2′]bipyridinyl-4-carbonyl)-pyrrolidin-3-yl]-ethyl-carbamic acid 4-fluoro-phenyl ester]",3
2,"CCN(C(=O)Oc1ccc(F)cc1)[C@@H]1CN(C(=O)C2CCN(c3ccc(C)cn3)CC2)C[C@H]1c1ccc(F)c(F)c1 [Example 55, [(3S,4R)-4-(3,4-Difluoro-phenyl)-1-(5′-methyl-3,4,5,6-tetrahydro-2H-[1,2′]bipyridinyl-4-carbonyl)-pyrrolidin-3-yl]-ethyl-carbamic acid 4-fluoro-phenyl ester]",9
